SMILES strings stand for the structures.

For data set [1], the system named is TNFα production by human peripheral blood mononuclear cells. Nature of the data set: PBMC test: TNFα production after lipopolysaccharide stimulation. The format is cell-based. The note with it: LPS-stimulated TNFα production. How it is done:
The ability of compounds of this invention to inhibit TNFα production was assessed by using human peripheral blood mononuclear cells which synthesise and secrete TNFα when stimulated with lipopolysaccharide.
Peripheral blood mononuclear cells (PBMC) were isolated from heparinised (10 units/ml heparin) human blood by density centrifugation (Lymphoprep™; Nycomed). Mononuclear cells were resuspended in culture medium [RPMI 1640 medium (Gibco) supplemented with 50 units/ml penicillin, 50 μg/ml streptomycin, 2 mM glutamine and 1% heat-inactivated human AB serum (Sigma H-1513)]. Compounds were solubilised in DMSO at a concentration of 50 mM, diluted 1:100 in culture medium and subsequently serial dilutions were made in culture medium containing 1% DMSO. PBMCs (2.4×10^5 cells in 160 μl culture medium) were incubated with 20 μl of varying concentrations of test compound (triplicate cultures) or 20 μl culture medium containing 1% DMSO (control wells) for 30 minutes at 37° C. in a humidified (5%CO2/95% air) incubator (Falcon 3072; 96 well flat-bottom tissue culture plates). 20 μl lipopolysaccharide [LPS E.Coli 0111:B4 (Sigma L-4130), final concentration 10 μg/ml] solubilised in culture medium was added to appropriate 30 wells. 20 μl culture medium was added to “medium alone” control wells. Six “LPS alone” and four “medium alone” controls were included on each 96 well plate. Varying concentrations of a known TNFα inhibitor were included in each test, i.e. an inhibitor of the PDE Type IV enzyme (for example see Semmler, J. Wachtel. H and Endres. S., Int. J. Immunopharmac. (1993), 15(3), 409-413) or an inhibitor of proTNFα convertase (for example, see McGeehan, G. M. et al. Nature (1994) 370, 558-561). Plates were incubated for 7 hours at 37° C. (humidified incubator) after which 100 μl of the supernatant was removed from each well and stored at −70° C. (96 well round-bottom plates; Corning 25850). TNFα levels were determined in each sample using a human TNFα ELISA (see WO92/10190 and Current Protocols in Molecular Biology, vol 2 by Frederick M. Ausbel et al., John Wiley and Sons Inc.). [formula]

For a further data set, the target named is T1, p38α (Homo sapiens, UniProt Q16539).
T1 construct: c-myc (N); 6His (N); made in house; host or cells: E. coli (PET vectors)
The data set can be described thus: In vitro enzyme assay, p38α isoform. The format is biochemical. To be noted: read-out: IC50 against p38α. How it is done:
The ability of compounds of the invention to inhibit the enzyme p38 kinase was assessed. Activity of particular test compounds against each of the p38α and p38β isoforms of the enzyme was determined.
Human recombinant MKK6 (GenBank Accesion Number G1209672) was isolated from Image clone 45578 (Genomics, 1996, 33, 151) and utilised to produce protein in the form of a GST fusion protein in a pGEX vector using analogous procedures to those disclosed by J. Han et al., Journal of Biological Chemistry, 1996, 271, 2886-2891, p38α (GenBank Accession Number G529039) and p38β (GenBank Accession Number G1469305) were isolated by PCR amplification of human lymphoblastoid cDNA (GenBank Accession Number GM1416) and human foetal brain cDNA [synthesised from mRNA (Clontech, catalogue no. 6525-1) using a Gibco superscript cDNA synthesis kit] respectively using oligonucleotides designed for the 5′ and 3′ ends of the human p38α and p38β genes using analogous procedures to those described by J. Han et al., Biochimica et Biophysica Acta, 1995, 1265, 224-227 and Y. Jiang et al. Journal of Biological Chemistry 1996, 271, 17920-17926.
Both p38 protein isoforms were expressed in e coli in PET vectors. Human recombinant p38α and p38β isoforms were produced as 5′ c-myc, 6His tagged proteins. Both MKK6 and the p38 proteins were purified using standard protocols: the GST MKK6 was purified using a glutathione sepharose column and the p38 proteins were purified using nickel chelate columns.
The p38 enzymes were activated prior to use by incubation with MKK6 for 3 hours at 30° C. The unactivated coli-expressed MKK6 retained sufficient activity to fully activate both isoforms of p38. The activation incubate comprised p38α (10 μl of 10 mg/ml) or p38β (10 μl of 5 mg/ml) together with MKK6 (1 μl of 1 mg/ml), ‘Kinase buffer’ [100 μl; pH 7.4 buffer comprising Tris (50 mM), EGTA (0.1 mM), sodium orthovanadate (0.1 mM) and β-mercaptoethanol (0.1%)] and MgATP (30 μl of 50 mM Mg(OCOCH3)2 and 0.5 mM ATP). This produced enough activated p38 enzyme for 3 Microtiter plates.
Test compounds were solubilised in DMSO and 10 μl of a 1:10 diluted sample in ‘Kinase Buffer’ was added to a well in a Microtiter plate. For single dose testing, the compounds were tested at 10 μM. ‘Kinase Assay Mix’ [30 μl; comprising Myelin Basic Protein (Gibco BRL cat. no. 1322B-010; 1 ml of a 3.33 mg/ml solution in water), activated p38 enzyme (50 μl) and ‘Kinase Buffer’ (2 ml)] was then added followed by ‘Labelled ATP’ [10 μl; comprising 50 μM ATP, 0.1 μCi ^33P ATP (Amersham International cat. no. BF1000) and 50 mM Mg(OCOCH3)2]. The plates were incubated at room temperature with gentle agitation. Plates containing p38α were incubated for 90 min and plates containing p38β were incubated for 45 min. Incubation was stopped by the addition of 50 μl of 20% trichloroacetic acid (TCA). The precipitated protein was phosphorylated by p38 kinase and test compounds were assessed for their ability to inhibit this phosphorylation. The plates were filtered using a Canberra Packard Unifilter and washed with 2% TCA, dried overnight and counted on a Top Count scintillation counter.
(§1) Test compounds were tested initially at a single dose and active compounds were retested to allow IC50 values to be determined.

In another data set the test system is p38 kinase. Nature of the data set: In vitro enzyme assay, p38 kinase (isoform not specified, or p38α and/or p38β). The format is biochemical, human. To be noted: result in words. The procedure: The ability of compounds of the invention to inhibit the enzyme p38 kinase was assessed. Activity of particular test compounds against each of the p38α and p38β isoforms of the enzyme was determined. […]
Test compounds were solubilised in DMSO and 10 μl of a 1:10 diluted sample in ‘Kinase Buffer’ was added to a well in a Microtiter plate. […] The precipitated protein was phosphorylated by p38 kinase and test compounds were assessed for their ability to inhibit this phosphorylation. The plates were filtered using a Canberra Packard Unifilter and washed with 2% TCA, dried overnight and counted on a Top Count scintillation counter.
as §1

T1 sequence (Q16539 whole entry): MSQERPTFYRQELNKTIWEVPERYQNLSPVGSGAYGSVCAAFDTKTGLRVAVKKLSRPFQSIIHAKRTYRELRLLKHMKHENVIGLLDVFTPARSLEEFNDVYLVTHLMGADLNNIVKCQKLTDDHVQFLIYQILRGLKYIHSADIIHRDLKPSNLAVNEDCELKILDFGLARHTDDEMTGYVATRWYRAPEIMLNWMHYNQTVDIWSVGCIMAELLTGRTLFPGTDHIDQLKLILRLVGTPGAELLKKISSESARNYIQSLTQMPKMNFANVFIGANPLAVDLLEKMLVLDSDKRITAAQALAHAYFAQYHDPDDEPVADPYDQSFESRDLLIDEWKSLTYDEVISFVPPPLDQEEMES

As to `Cc1ccc(NC(=O)c2cccc(N(C)C)c2)cc1NC(=O)c1ccccc1O` [Example 30, N-[5-(3-dimethylaminobenzamido)-2-methylphenyl]-2-hydroxybenzamide], the melting point (commonly the temperature of the solid-liquid transition) was 234 to 238 °C.

Turning to `Cc1ccc(NC(=O)c2c(F)cccc2Cl)cc1NC(=O)c1ccc(O)cc1` [Example 9, Compound No. 12], the values for the IC50 (in data set [1]; at p38α) were about 22 µM and about 1.7 µM, respectively.

In the case of `COc1ccc(C(=O)Nc2cc(NC(=O)c3cccc(NC(C)=O)c3)ccc2C)cc1OC` [Example 33, N-[5-(3-acetamidobenzamido)-2-methylphenyl]-3,4-dimethoxybenzamide], the melting point is 187 to 188 °C.

In the case of `COc1ccc(C(=O)Nc2cc(NC(=O)c3cccc(N(C)C)c3)ccc2C)cc1OC` [Example 9, Compound No. 7, N-[5-(3-dimethylaminobenzamido)-2-methylphenyl]-3,4-dimethoxybenzamide], the values for the IC50 (in data set [1]; at p38α) were about 7 µM and about 0.2 µM, respectively.

The compound `COc1ccc(C(=O)Nc2cc(NC(=O)c3cccc(Br)c3)ccc2C)cc1OC` [Example 6, N-[5-(3-bromobenzamido)-2-methylphenyl]-3,4-dimethoxybenzamide] displayed a melting point of 136 to 138 °C.

`COc1ccc(C(=O)Nc2cc(NC(=O)c3cccc(N)c3)ccc2C)cc1OC` [Example 13, N-[5-(3-aminobenzamido)-2-methylphenyl]-3,4-dimethoxybenzamide] had a melting point of 179 to 180 °C. Moreover, the IC50 (as a rule, the concentration that gives 50% inhibition) in data set [1] is about 7 µM. Moreover, the IC50 at p38α was about 0.7 µM.

`COc1ccc(C(=O)Nc2cc(NC(=O)c3ccc(O)cc3)ccc2C)cc1OC` [Example 10, N-[5-(4-hydroxybenzamido)-2-methylphenyl]-3,4-dimethoxybenzamide]: the melting point fell in the range of 258 to 259 °C.

For `Cc1ccc(NC(=O)CCC2CCCC2)cc1NC(=O)c1ccc(O)cc1` [N-[5-(3-cyclopentylpropionamido)-2-methylphenyl]-4-hydroxybenzamide], at p38α, the IC50 was about 6 µM.

With `Cc1ccc(NC(=O)c2cccc(N3CCOCC3)c2)cc1NC(=O)c1cccc(N2CCOCC2)c1` [Example 9, Compound No. 50, N-[2-methyl-5-(3-morpholinobenzamido)phenyl]-3-morpholinobenzamide], the values for the IC50 (in data set [1]; at p38α) were about 1.5 µM and about 0.04 µM, respectively.

Compound `COc1ccc(C(=O)Nc2cc(NC(=O)c3cccc(O)c3)ccc2C)cc1OC` [Example 11, N-[5-(3-hydroxybenzamido)-2-methylphenyl]-3,4-dimethoxybenzamide] came in with a melting point of 182 to 183 °C.

On to `Cc1ccc(NC(=O)CCCC2CCCCC2)cc1NC(=O)c1ccc(O)cc1` [N-[5-(4-Cyclohexylbutyrylamino)-2-methylphenyl]-4-hydroxybenzamide], for which the melting point fell in the range of 159 to 160 °C.

Consider `Cc1ccc(NC(=O)CCC2CCCCC2)cc1NC(=O)c1ccc(O)cc1` [N-[5-(3-cyclohexylpropionamido)-2-methylphenyl]-4-hydroxybenzamide], for which the IC50 in data set [1] is about 7 µM; at p38α, about 0.4 µM.

Compound `Cc1ccc(NC(=O)c2ccc(C#N)cc2)cc1NC(=O)c1ccc(O)cc1` [Example 4, N-[5-(4-Cyanobenzamido)-2-methylphenyl]-4-hydroxybenzamide] showed a melting point of 297 to 299 °C.

Turning to `Cc1ccc(NC(=O)c2cccc(N(C)C)c2)cc1NC(=O)c1ccc(O)cc1` [N-[5-(3-Dimethylaminobenzamido)-2-methylphenyl]-4-hydroxybenzamide], the “p38 kinase inhibitory activity” value in the data set on p38 kinase is reported as “possess p38 kinase inhibitory activity”.

Consider `Cc1ccc(NC(=O)c2ccccc2)cc1NC(=O)c1cccc(CN2CCN(C)CC2)c1` [Example 9, Compound No. 51, N-(5-benzamido-2-methylphenyl)-3-(4-methylpiperazin-1-yl)methylbenzamide], for which the IC50 in data set [1] was about 3 µM; on p38α it was about 0.7 µM.

(Values after patent US6686467B2, “Amide derivatives for the treatment of diseases mediated by cytokines” (Zeneca Limited, priority 1997, dated 2004).)
